Data from patent US11912705B2, “Cathinone derivatives, pharmaceutical formulations, and methods” (The Corporation of Mercer University, priority 2020, dated 2024).

Columns and labels:
human M4R = target: T1, human M4R (Homo sapiens, UniProt P08173); test: [3H]Scopolamine radioligand competition binding at M4R
T1 construct: host or cells: HEK293 (CRL-1573, ATCC), transient
T1 sequence (P08173 1-479): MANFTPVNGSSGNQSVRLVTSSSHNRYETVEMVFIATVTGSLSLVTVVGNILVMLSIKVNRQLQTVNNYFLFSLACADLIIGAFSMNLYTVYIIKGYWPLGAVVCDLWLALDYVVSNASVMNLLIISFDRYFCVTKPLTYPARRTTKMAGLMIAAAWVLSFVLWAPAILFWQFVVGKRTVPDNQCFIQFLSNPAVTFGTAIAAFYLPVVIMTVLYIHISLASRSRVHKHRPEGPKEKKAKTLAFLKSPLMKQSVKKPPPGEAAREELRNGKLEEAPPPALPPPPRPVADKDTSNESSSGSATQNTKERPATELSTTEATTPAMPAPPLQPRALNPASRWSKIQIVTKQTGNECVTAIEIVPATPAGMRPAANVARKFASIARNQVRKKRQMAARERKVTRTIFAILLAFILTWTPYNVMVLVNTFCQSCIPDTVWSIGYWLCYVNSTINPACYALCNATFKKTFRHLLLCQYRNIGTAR
Procedure: (§1) Radioligand Competition Binding: Radioligand competition binding assays were conducted using membranes collected from transiently transfected HEK293 cells (P<20 from a procured stock, CRL-1573, ATCC, Manassas, Va., USA) as previously described (Chen, Y., et al. Drug Test Anal 11, 990-998). Briefly, cells ˜90% confluent in 10 cm plates were transfected with 5 μg human M1R, M2R, M3R, M4R or […] cDNA (cDNA resource center, Bloomsburg, Pa., USA) using a lipid-based method (LipoD293 reagent, SignaGen Laboratories, Rockville, Md., USA). Membranes were collected by centrifugation about 48 hours later and stored at −80° C. until used. […] After a 90-minute incubation at room temperature on a shaker, contents from the plates were rapidly filtered through GF/B fiberglass filter mats, pre-soaked with ice cold 50 mM Tris buffer (pH 7.4), using a Microbeta Filtermat-96 cell harvester (Perkin Elmer, Waltham, Mass., USA). Approximately 200 mL of ice cold, 50 mM Tris buffer was then vacuumed through filter mats to wash away unbound radioligand. Filter mats were dried on a hot plate and soaked in Betaplate (Perkin Elmer, Waltham, Mass., USA) scintillation fluid in plastic bags. Bags were sealed and placed in cassettes. Radioactivity was measured in a Microbeta2 Microplate Counter (Perkin Elmer, Waltham, Mass., USA), and counts per minute corresponding to each well on the plates were recorded. For full dose-response competition binding assays, increasing half-log unit concentrations of five unsubstituted PSCs were tested at M2Rs and M1Rs, with the same procedures described above.
(§2) Curve Fitting and Statistical Analyses: All data were analyzed by GraphPad 8.3.0 (San Diego, Calif., USA). Ki values were determined from data fit to both one- and two-site models. […] EC50 and IC50 values from functional assays were determined from data fit to the log(agonist) vs. response (three parameters) or log(inhibitor) vs. response (three parameters) model, respectively. Kb values were calculated from IC50 values using the Cheng-Prusoff equation with modification (see, e.g., Leff, P., and Dougall, I. G. (1993) Trends Pharmacol Sci 14, 110-112): Kb=IC50/((2+([A]/[A50])nH)1/nH−1)

human M5R = target: T2, human M5R (Homo sapiens, UniProt P08912); test: [3H]Scopolamine radioligand competition binding at M5R
T2 construct: host or cells: HEK293 (CRL-1573, ATCC), transient
T2 sequence (P08912 1-532): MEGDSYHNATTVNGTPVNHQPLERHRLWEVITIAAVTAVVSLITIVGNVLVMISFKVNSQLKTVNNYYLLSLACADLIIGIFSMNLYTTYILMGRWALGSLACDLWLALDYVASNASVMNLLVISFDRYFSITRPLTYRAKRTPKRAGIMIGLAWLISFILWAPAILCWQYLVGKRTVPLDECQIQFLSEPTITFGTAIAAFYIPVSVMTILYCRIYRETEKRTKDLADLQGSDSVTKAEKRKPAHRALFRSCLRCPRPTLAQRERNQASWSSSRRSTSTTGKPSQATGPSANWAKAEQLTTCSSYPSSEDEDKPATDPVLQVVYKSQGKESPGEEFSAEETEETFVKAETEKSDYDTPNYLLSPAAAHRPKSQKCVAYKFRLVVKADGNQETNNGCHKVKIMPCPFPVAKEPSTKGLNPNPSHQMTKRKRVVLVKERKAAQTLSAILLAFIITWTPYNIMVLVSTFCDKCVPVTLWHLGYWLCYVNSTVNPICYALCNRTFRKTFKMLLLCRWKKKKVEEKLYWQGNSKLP
Procedure: as §1, §2

human M2R = target: T3, human M2R (Homo sapiens, UniProt P08172); test: M2R cAMP signaling (forskolin-stimulated cAMP, oxotremorine agonist); format: cell-based
T3 construct: host or cells: HEK293 (CRL-1573, ATCC), transient
T3 sequence (P08172 1-466): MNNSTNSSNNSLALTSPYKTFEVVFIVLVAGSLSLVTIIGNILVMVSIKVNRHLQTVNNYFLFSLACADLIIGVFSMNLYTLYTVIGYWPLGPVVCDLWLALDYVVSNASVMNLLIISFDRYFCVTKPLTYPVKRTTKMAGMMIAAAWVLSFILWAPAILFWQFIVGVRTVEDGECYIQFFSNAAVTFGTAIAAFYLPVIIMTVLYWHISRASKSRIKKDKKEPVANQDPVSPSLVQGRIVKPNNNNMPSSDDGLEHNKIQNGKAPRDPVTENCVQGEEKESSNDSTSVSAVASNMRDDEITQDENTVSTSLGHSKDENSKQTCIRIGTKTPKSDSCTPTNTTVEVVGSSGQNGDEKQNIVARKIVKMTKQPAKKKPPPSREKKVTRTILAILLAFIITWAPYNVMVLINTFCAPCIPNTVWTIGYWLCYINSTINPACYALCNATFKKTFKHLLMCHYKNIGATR
Procedure: The M2R coupled to Gαi/o proteins, and its agonism functioned to decrease formation of the intracellular second messenger cyclic-adenosine-monophosphate (cAMP). […] In the presence of oxotremorine, an antagonist of the M2R would be expected to reverse the effects of the agonist, thereby increasing cAMP formation.
M2R cAMP Signaling: cAMP measurements were performed with the cAMP Hunter eXpress® CHRM2 CHO-K1 GPCR assay (Eurofins DiscoveRx, Fremont, Calif., USA) according to the manufacturer's protocol. Briefly, in the provided 96-well tissue culture-treated plate, 100 μL of human M2R expressing CHO-K1 cells were seeded in cell plating reagent and incubated (37° C., 5% CO2, 95% humidity) overnight. Cell plating reagent was replaced with 30 μL of cell assay buffer the next day. For agonist stimulation, cells were treated with increasing half-log unit concentrations of oxotremorine in the presence of 10 μM forskolin, followed by incubation for 30 minutes. A cAMP antibody, cAMP working detection solution and enzyme acceptor solution were then added according to the protocol, and the final chemiluminescent signals were detected by a Mithras LB 940 microplate reader (Berthold Technologies, Bad Wildbad, Germany). Antagonist tests were run by pretreating cells with increasing half-log unit concentrations of α-PHP, followed by incubation for one hour. Cells were then treated with EC80 concentration of oxotremorine (130 nM) and 10 μM forskolin. The same incubation and detection procedure used for agonist assays was used for the remaining steps.
as §2

Row | Structure (SMILES) | Ki (human M4R) [nM] | Ki (human M5R) [nM] | Kb (human M2R) [nM]
1 | CCCCC(C(=O)c1ccccc1)N1CCCCC1 (stereo not drawn) [Compound (1), 1-phenyl-2-(piperidin-1-yl)hexan-1-one] | 1240 | 679 | 126
2 | CCCCC(C(=O)c1ccccc1)N1CCCCCC1 (stereo not drawn) [Compound (2), 2-(azepan-1-yl)-1-phenylhexan-1-one] | 997 | 1040 | 158
3 | CCCCC(C(=O)c1ccccc1)N1CCCC1 (stereo not drawn) [α-PHP, 1-phenyl-2-(pyrrolidin-1-yl)hexan-1-one] | 1950 | 1510 | 120
